Assay results published in ChEMBL document CHEMBL1150028, “-((Tetronoyl)oxy)- and -((tetramoyl)oxy)methyl ketone inhibitors of the interleukin-1 converting enzyme (ICE)” (Bioorg Med Chem Lett, 1997).

Experiments:
[1] = biological target: T1, Caspase-1 (Homo sapiens) (UniProt P29466); assay: Inhibitory activity against IL-1 beta converting enzyme was determined
T1 sequence (whole entry): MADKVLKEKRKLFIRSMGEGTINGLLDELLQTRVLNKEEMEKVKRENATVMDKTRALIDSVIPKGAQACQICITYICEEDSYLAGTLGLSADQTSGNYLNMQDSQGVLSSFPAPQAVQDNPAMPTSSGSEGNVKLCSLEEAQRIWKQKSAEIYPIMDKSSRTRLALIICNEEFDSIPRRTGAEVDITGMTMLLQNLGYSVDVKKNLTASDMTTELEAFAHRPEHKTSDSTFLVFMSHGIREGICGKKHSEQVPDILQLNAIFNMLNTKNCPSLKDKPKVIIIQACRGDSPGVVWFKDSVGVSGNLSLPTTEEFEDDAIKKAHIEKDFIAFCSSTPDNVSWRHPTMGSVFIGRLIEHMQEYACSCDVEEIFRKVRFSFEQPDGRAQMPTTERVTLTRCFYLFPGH

[2] = Stability of compound was determined by its half life period; type: physicochemical

Compound | K obs / 1 [1] [M⁻¹ s⁻¹] | half-life [2] [h]
CC(C)[C@H](NC(=O)OCc1ccccc1)C(=O)N[C@@H](CC(=O)O)C(=O)COC1=C(c2ccccc2)C(=O)OC1 | 27900 | –
O=C(O)C[C@H](NC(=O)OCc1ccccc1)C(=O)COC1=C(c2ccccc2)C(=O)CC1 | 3070 | 3.9
CC(C)[C@H](NC(=O)OCc1ccccc1)C(=O)N[C@@H](C)C(=O)N[C@@H](CC(=O)O)C(=O)COC1=C(Cc2ccccc2)C(=O)OC1 | – | 20
CC(C)[C@H](NC(=O)OCc1ccccc1)C(=O)N[C@@H](CC(=O)O)C(=O)COC1=C(c2ccccc2)C(=O)NC1 | 8500 | 95
O=C(O)C[C@H](NC(=O)OCc1ccccc1)C(=O)COC1=C(Cl)C(=O)OC1 | < 25 | –
CC(C)[C@H](NC(=O)OCc1ccccc1)C(=O)N[C@@H](CC(=O)O)C(=O)COC1=C(Cc2ccccc2)C(=O)OC1 | 21200 | –
CC1(C)OC(=O)C(c2ccccc2)=C1OCC(=O)[C@H](CC(=O)O)NC(=O)OCc1ccccc1 | 260 | –
O=C(O)C[C@H](NC(=O)OCc1ccccc1)C(=O)COC(=O)c1c(Cl)cccc1Cl | 7100 | –
O=C(O)C[C@H](NC(=O)OCc1ccccc1)C(=O)COC1=C(c2ccc(Cl)cc2)C(=O)OC1 | 4100 | –
Cc1ccc(C2=C(OCC(=O)[C@H](CC(=O)O)NC(=O)OCc3ccccc3)COC2=O)cc1 | 4500 | –
O=C(O)C[C@H](NC(=O)OCc1ccccc1)C(=O)COC1=C(c2ccc(Cl)c(Cl)c2)C(=O)OC1 | 640 | –
CC(C)[C@H](NC(=O)OCc1ccccc1)C(=O)N[C@@H](CC(=O)O)C(=O)COC(=O)c1c(Cl)cccc1Cl | 41000 | –
O=C(O)C[C@H](NC(=O)OCc1ccccc1)C(=O)COC1=CC(=O)OC1 | 188 | –
O=C(O)C[C@H](NC(=O)OCc1ccccc1)C(=O)COC1=C(Cc2ccccc2)C(=O)OC1 | 2850 | 9.8
O=C(O)C[C@H](NC(=O)OCc1ccccc1)C(=O)COC1=C(c2ccccc2)C(=O)OC1 | 5700 | 0.86
COc1ccc(C2=C(OCC(=O)[C@H](CC(=O)O)NC(=O)OCc3ccccc3)COC2=O)cc1 | 4000 | –
